Experimental data taken from patent US20090087376A1, “Heterocyclic Dye Compounds For In Vivo Imaging And Diagnosis Of Alzheimer's Disease” (The General Hospital Corporation, priority 2004, published 2009).

What was measured:
β-amyloid plaques = assay: Plaque specificity of dye compounds; type: binding
Enter CNS (BBB) = settings: in vivo
[1] = Near-IR spectra of dye compounds; type: physicochemical

Enter CNS (BBB) (Enter CNS (BBB))	Near-IR spectra [1]	Structure (SMILES)	Plaque specificity (β-amyloid plaques)
Yes/No	Yes	CC1(C)C(/C=C/c2ccc(-c3ccc(-c4ccc(O)cc4)s3)s2)=[N+](CCCS(=O)(=O)[O-])c2ccccc21 [NIAD1]	Yes
No	Yes	C[N+]1=C(/C=C/c2ccc(-c3ccc(-c4ccc(O)cc4)s3)s2)C(C)(C)c2ccccc21.[Cl-] [NIAD3]	Yes
No	Yes	CN(C)c1ccc(-c2sc(-c3ccc(C=C(C#N)C#N)s3)c3ccccc23)cc1 [NIAD6]	Yes
Yes	No	CN(C)c1ccc(-c2ccc(-c3ccc(C=C4C(=C(C#N)C#N)c5ccccc5C4=C(C#N)C#N)s3)s2)cc1 [NIAD7]	Yes
